Results: patent publication US12428422B2, “Purine derivatives as SIK-3 inhibitors” (RHIZEN PHARMACEUTICALS AG, priority 2020, dated 2025)

What was measured:
[1] = molecular target: 6 isoform of PI3K (Homo sapiens, UniProt O00329); test: Activity against PI3K delta isoform (printed "6"); details: independently synthesized compound
[2] = molecular target: y isoform of PI3K (Homo sapiens, UniProt P48736); test: Activity against PI3K gamma isoform (printed "y" / "7"); details: independently synthesized compound
[3] = system: mouse IL-10 mRNA; test: IL-10 mRNA expression in LPS-stimulated mouse bone marrow derived macrophages (real-time PCR); format: cell-based; details: LPS (1 μg/ml) stimulated mouse BMDM; 1 μM Compound M1 vs 1 μM dasatinib (FIG. 2C)
Description: Assay 2: Evaluation of mRNA Expression Levels of IL-10, TNFα, and Arginase-1 in LPS-Stimulated (1 μg/ml) Mouse Bone Marrow Derived Macrophages (BMDM).
Mouse-Bone Marrow Cell Isolation
• Femur bones from healthy mice were collected taking all aseptic precautions. • Bones were severed proximal to each joint using sterile scissors. • A 10 ml syringe with 25-G needle was filled with cold sterile wash medium (DMEM/F12 medium+10% FBS (fetal bovine serum)+1% Penicillin-streptomycin). • The needle was inserted into bone marrow cavity of femur and the cavity was flushed with 2-5 mL of wash medium, until the bone cavity appeared white. • Wash medium was collected in a 50 mL tube and centrifuged at 500×g for 10 minutes at room temperature. • Cells were resuspended in DMEM/F12 medium and cell count was taken. […]
Fold change in the mRNA expression was calculated by 2^−ΔΔCt method and data was plotted using GraphPad Prism.

[4] = system: THP-1 cell lines; test: MTT cell growth inhibition, single agent or combination, THP-1; format: cell-based; details: combined with azacytidine or ventoclax, 72 hrs
Description: Assay 4: Compound M1 as a Single Agent or in Combination with Azacytidine, or Venetoclax was Determined in the AML Lines: THP-1, U937, and MV-4-11.
Day 0 • The cells were pelleted and counted. • Cells were plated at desired density (100 μl/well) in complete media in a 96-well plate in triplicates. A column for Day “0” reading was also seeded (18-20 hrs after initial plating and before addition of the inhibitors) • Plates were incubated at 37° C. and 5% CO2. Day 1 • 10 μl of MTT (5 mg/ml) were added to the column designated for Day “0”. It was mixed well and incubated at 37° C. and 5% CO2 for 3.5 h. Cells were pelleted down at 4000 rpm for 10 minutes. • Media was aspirated out and 150 μl of DMSO were added to the cells and mixed by pipetting to dissolve the crystals • Plate was read at A560 nm and A640 nm. […] Crystals were dissolved by repeated pipetting. • The plate was read at A560 nm and A640 nm. […]
Reference absorbance values were subtracted from test absorbance values. Day 0 values were subtracted from final day absorbance values for determining cell growth. Percent cell growth inhibitions were calculated.

[5] = system: OVCAr-3 cell lines; test: MTT cell growth inhibition, combination with talzoparib, OVCAR-3; format: cell-based; details: combined with talzoparib, 72 hrs
Description: Assay 5: Combination of Compound M1 with Standard Agents in Different Cell Lines
Day 0 • The cells were pelleted and counted. • Cells were plated at desired density (100 μl/well) in complete media in a 96-well plate in triplicates. A column for Day “0” reading was also seeded. (18-20 hrs after initial plating and before addition of the inhibitors) • Plates were incubated at 37° C. and 5% CO2. Day 1 • 10 μl of MTT (5 mg/ml) were added to the column designated for Day “0”. It was mixed well and incubated at 37° C. and 5% CO2 for 3.5 h. Cells were pelleted down at 4000 rpm for 10 minutes. • Media was aspirated out and 150 μl of DMSO were added to the cells and mixed by pipetting to dissolve the crystals • The plate was read at A560 nm and A640 nm. Day 2 • A series of dilutions of the inhibitors were initially made in 100% DMSO and further diluted in growth medium. • Cells were treated with either single agent of DMSO, compound M1, talzoparib, and combination of compound M1 and talzoparib (OVCAr-3 and SK-OV-3). […]
The plate was read at A560 nm and A640 nm.
Reference absorbance values were subtracted from test absorbance values. Day 0 values were subtracted from final day absorbance values for determining cell growth. % Cell growth inhibitions were calculated.

y isoform of PI3K, sequence (P48736 whole entry, canonical isoform): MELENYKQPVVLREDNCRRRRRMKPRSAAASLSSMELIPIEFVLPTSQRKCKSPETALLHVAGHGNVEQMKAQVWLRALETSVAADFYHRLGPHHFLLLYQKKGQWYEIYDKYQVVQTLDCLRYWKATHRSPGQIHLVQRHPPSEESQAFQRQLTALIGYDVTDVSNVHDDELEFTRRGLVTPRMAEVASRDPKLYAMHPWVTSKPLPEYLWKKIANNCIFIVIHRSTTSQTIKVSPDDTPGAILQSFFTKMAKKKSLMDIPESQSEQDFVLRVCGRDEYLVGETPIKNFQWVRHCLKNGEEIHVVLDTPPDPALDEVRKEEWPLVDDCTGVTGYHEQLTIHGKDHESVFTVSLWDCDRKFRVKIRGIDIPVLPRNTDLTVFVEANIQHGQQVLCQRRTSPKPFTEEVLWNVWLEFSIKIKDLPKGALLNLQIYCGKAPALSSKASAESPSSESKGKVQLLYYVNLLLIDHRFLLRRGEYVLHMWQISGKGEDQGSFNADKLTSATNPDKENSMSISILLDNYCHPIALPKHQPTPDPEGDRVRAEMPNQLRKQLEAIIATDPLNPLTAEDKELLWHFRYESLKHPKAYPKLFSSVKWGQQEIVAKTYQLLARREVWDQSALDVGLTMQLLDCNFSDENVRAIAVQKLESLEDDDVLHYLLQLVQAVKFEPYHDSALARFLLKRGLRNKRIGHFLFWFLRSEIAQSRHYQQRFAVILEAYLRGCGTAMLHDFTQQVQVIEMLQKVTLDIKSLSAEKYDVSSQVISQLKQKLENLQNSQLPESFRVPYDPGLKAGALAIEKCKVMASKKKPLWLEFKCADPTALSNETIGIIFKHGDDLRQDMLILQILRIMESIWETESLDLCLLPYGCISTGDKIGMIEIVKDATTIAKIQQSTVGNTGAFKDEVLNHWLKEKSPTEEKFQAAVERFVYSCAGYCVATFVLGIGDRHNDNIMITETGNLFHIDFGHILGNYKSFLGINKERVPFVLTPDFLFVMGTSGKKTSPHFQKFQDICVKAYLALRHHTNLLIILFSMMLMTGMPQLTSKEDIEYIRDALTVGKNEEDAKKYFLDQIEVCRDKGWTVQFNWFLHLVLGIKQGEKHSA
6 isoform of PI3K, sequence (O00329 whole entry, canonical isoform): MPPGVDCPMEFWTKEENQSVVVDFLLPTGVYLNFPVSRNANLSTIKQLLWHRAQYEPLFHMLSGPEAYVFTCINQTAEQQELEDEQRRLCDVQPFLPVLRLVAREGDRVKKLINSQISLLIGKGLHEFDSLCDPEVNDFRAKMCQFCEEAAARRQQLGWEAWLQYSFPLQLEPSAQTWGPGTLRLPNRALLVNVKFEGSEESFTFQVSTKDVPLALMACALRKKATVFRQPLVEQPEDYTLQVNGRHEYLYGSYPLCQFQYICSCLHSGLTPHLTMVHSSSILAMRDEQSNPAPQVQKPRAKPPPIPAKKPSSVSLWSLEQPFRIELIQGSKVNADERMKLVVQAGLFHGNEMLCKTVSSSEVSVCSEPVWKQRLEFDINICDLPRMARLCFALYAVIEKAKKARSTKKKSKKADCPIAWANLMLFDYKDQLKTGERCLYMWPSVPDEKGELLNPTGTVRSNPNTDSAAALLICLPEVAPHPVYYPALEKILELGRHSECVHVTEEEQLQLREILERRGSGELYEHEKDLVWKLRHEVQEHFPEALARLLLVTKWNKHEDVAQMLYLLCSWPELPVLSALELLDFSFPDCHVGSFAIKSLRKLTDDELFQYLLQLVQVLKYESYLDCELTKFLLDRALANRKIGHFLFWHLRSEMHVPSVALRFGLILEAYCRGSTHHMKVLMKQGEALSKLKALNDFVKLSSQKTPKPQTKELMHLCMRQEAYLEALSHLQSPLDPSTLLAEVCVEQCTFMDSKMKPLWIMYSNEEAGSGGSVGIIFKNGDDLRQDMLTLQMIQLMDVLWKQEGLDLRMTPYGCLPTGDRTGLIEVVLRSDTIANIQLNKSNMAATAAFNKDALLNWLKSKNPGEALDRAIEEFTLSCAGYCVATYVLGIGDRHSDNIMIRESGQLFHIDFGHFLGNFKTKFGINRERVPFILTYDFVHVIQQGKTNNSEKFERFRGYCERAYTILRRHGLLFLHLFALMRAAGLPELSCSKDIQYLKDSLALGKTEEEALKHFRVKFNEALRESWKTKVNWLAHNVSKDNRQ
6 isoform of PI3K, sequence (P27986 whole entry partner, canonical isoform): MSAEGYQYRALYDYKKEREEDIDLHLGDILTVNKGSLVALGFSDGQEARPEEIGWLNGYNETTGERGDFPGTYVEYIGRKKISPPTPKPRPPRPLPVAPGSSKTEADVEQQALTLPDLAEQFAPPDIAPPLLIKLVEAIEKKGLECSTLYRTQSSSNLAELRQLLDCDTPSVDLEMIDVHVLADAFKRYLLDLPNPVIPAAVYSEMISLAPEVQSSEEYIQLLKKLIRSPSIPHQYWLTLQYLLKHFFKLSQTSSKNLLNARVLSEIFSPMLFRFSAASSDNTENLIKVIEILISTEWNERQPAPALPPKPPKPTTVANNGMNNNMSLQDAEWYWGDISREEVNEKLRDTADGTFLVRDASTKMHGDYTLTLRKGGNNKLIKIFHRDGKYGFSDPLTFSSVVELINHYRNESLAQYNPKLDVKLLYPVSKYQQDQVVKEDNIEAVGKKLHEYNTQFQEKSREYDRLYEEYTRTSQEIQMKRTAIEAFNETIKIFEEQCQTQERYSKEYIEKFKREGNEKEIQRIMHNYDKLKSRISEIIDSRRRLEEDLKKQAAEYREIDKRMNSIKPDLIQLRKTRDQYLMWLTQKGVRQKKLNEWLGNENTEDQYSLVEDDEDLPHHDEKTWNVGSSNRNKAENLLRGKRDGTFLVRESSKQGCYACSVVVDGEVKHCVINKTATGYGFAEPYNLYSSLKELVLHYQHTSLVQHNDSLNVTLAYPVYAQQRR

Compound: CC[C@H](Nc1ncnc2[nH]c(O)nc12)c1oc2ccccc2c(=O)c1-c1cccc(F)c1 [Compound M1, (S)-3-(3-fluorophenyl)-2-(1-((8-hydroxy-9H-purin-6-yl)amino)propyl)-4H-chromen-4-one]
- activity against the 6 isoform of PI3K [1]: inactive
- activity against the y isoform of PI3K [2]: inactive
- mouse IL-10 mRNA expression, potency relative to dasatinib [3]: equally potent as dasatinib
- cell growth inhibition in combination [4]: synergistic activity
- cell growth inhibition in combination [5]: synergistic results
